Assay results taken from article PMC3997483, “Aminostyrylbenzofuran Directly Reduces Oligomeric Amyloid-β and Reverses Cognitive Deficits in Alzheimer Transgenic Mice” (PLoS ONE, 2014).
≈ marks a conversion by molar mass, not a printed value. Where two headings read alike, the source gives them in different places. Marks after values point to notes of the source that are not given here.

Experiments:
SD rats = assay: Single dose oral toxicity study; type: in vivo; settings: rats
Experimental: (§1) KMS88009 was orally administered by gavage at dose levels of 0 (vehicle), 1,000 and 2,000 mg/kg. Each group consisted of 3 rats. Vehicle was DMSO/tween-20/saline (3.3∶3.3∶93.4) mixture. Administration volume of vehicle and KMS88009 was 10 mL/kg. Mortality, physical abnormalities and signs of pain/distress were daily observed in all animals. Body weight of each animal was measured before the administration and on the 1st, 4th, 8th, 11th and 14th days.
(§2) All data for single and 2-week repeated oral dose toxicity studies were expressed as the mean ± SD Difference between control and treated groups were evaluated with one-way analysis of variance (ANOVA) followed by Dunnett's test. Value P<0.05 was taken as being statistically significant. Statistical analyses were performed using GraphPad Prism software (USA).

[1] = Single dose oral toxicity study; type: in vivo; settings: SD, rat, in vivo, po
Experimental: as §1, §2

[2] = Pharmacokinetics IV/PO in dogs; type: in vivo, beagle dogs; settings: for AUC(0-t): read-out: AUC0–24h
Experimental: Pharmacokinetics profile of KMS88009 was obtained using ICR mice, SD rats, beagle dogs and cynomolgus monkeys. Animals were fasted overnight before KMS88009 administration. Mice were divided into 2 groups to receive KMS88009 as a single dose of 2.1 mg/kg intravenous (IV) bolus or 10 mg/kg orally (PO) by gavage. Additionally, KMS88009 was administered orally to estimate the BBB penetration in mice (10, 30 and 100 mg/kg). […] Dog received KMS88009 either as an IV bolus (1 mg/kg) via the great saphenous vein or by oral gavage (4 mg/kg). KMS88009 was administrated to monkeys as an IV bolus (1 mg/kg) via the femoral vein or by oral gavage (4 mg/kg). Vehicle for IV and PO administration was DMSO/tween-20/saline (3.3∶19.8∶[…]). […]. Brain samples were weighed and Daunce-homogenized in 10-fold volume of ice-chilled 4% bovine serum albumin (BSA) solution at room temperature. Plasma and brain homogenates were kept frozen at −70°C until analysis. The levels of KMS88009 were determined by the LC-MS/MS analysis. Pharmacokinetic parameters, time to the maximum concentration (Tmax), maximum concentration (Cmax), elimination half-life (T1/2), volume of distribution (Vd), clearance (Cl) and mean residual time (MRT), of KMS88009 were calculated based on plasma concentration-time data by a non-compartmental method using WinNonlin Version 5.2 (Pharsight, USA). Area under the curve from 0 to 24 hr (AUC0-24h) and area under the curve from 0 to infinity (AUCINF) were obtained by linear and log linear trapezoidal summations.

Aβ40 and Aβ42 = assay: Aβ40/Aβ42 sandwich ELISA of brain tissue, prophylactic trial; type: in vivo, mouse
Experimental: Mice subjected to behavior tests were sacrificed and levels of Aβ in their brains were analyzed. After removing olfactory lobe and cerebellum of brain, hippocampus and cerebral cortex were separated. The separated regions were Dounce-homogenized first in 10-fold mass of a lysis buffer (RIPA, 150 mM NaCl, 1% NP-40, 0.5% deoxycholic acid, 0.1% SDS and 50 mM tris, pH 8.0) or tris buffer (50 mM tris and pH 8.0) containing protease inhibitor cocktail (Pierce, USA) for prophylactic or therapeutic treatment groups, respectively. […] The supernatant (soluble Aβ fraction) was collected and stored at −70°C until analyzed. The resulting pellet was solubilized in 20-fold mass of cold guanidine solution (5 M guanidine HCl, 50 mM tris HCl and pH 8.0) at room temperature for 4 hr followed by dilution with cold Dulbecco's phosphate buffered saline (PBS) with 5% BSA and 0.03% tween-20. […] The tissue concentrations of Aβ40 and Aβ42 in the soluble and insoluble fraction were measured using Aβ-detecting sandwich enzyme-linked immunosorbent assay (ELISA) kit (BioSource, USA). The levels of soluble Aβ oligomers were measured by a dot-blot immunoassay with an anti-oligomer antibody and an anti-Aβ antibody on soluble fraction of hippocampus homogenates. The homogenate sample (3 µL) was spotted onto nitrocellulose membrane (Whatman, UK). After blocking with 5% BSA in tris-buffered saline (TBS) for 1 hr at room temperature, the membrane was incubated with rabbit anti-oligomer polyclonal antibody (A11; 1∶1,000; Millipore, USA) overnight at 4°C, followed by incubation with HRP-secondary anti-rabbit antibody (1∶5,000; Millipore, USA) for 1 hr at room temperature. Blots were developed using ECL reagents (PerkinElmer, USA). Blots were re-identified after oligomeric antibody was stripped and re-probing with the anti-Aβ antibody 6E10 (1∶1,000; Signet, UK). The density of dots was analyzed with Multi Gauge program (Fuji Film, Japan) and the data was normalized to the average density of the TG control group. […] Membrane was incubated in a 5% solution of non-fat dry milk for 1 hr at room temperature. […]

in vitro = settings: monkey, liver microsomes
Solubility studies = type: physicochemical
Experimental: Solubility studies Solubility of KMS88009 in distilled water (DW), simulated gastric fluid (SGF, pH 1.2), simulated intestinal fluid (SIF, pH 6.8) and DMSO/tween-20/saline was determined. Excess amounts of KMS88009 were placed in screw-capped vials containing 2 mL of DW, SGF, SIF and DMSO/tween-20/saline. Suspensions were vortexed for 2 min and kept in a shaking water-bath at 37 °C. We transferred 250 μL of each sample to the filter insert of centrifuge tubes. After centrifugation at 16,000 rpm for 15 min, the filtrates of DW, SGF and SIF were analyzed by HPLC (Agilent 1200 series, USA). Values are expressed as the mean ± SD of 2 independent experiments.

Plasma stability = type: in vitro ADME; settings: 37 °C
Experimental: Plasma stability studies Plasma stability of the KMS88009 was studied in human, dog, rat and mouse plasma. Each plasma from different species was diluted to 5-fold with 0.05 M phosphate buffered saline (PBS, pH 7.4 at 37 °C). We added KMS88009 to 1 mL of preheated plasma solution to yield a final concentration of 1 μM. The assay was performed in a shaking water bath at 37 °C and conducted in triplicate. Samples (50 μL) were taken at 0, 0.5, 1, 2 and 6 hr and added to 10 μL of 0.05% formic acid. The samples were subjected to vortex mixing for 1 min and centrifuged at 4 °C for 20 min at 14,000 rpm. The clear supernatants were analyzed by liquid chromatography/mass/mass spectrometry (LC-MS/MS). Values are expressed as the mean ± SD of 2 independent experiments. Stability is expressed as the percentage of remaining compound in % relative to the start concentration set to 100%.

[3] = cortex, 10-100 mg/kg/day groups

## COc1ccc2cc(C=Cc3ccc(N(C)C)cc3)oc2c1 [KMS88009, 6-methoxy-2-(4-dimethylaminostyryl) benzofuran]
SD rats; single PO 1,000 mg/kg
  Mortality (dead animals / total number of animals): 0 / 3 ^a
SD rats; single PO 2,000 mg/kg
  Mortality (dead animals / total number of animals): 0 / 3
[1]
  LD50 at 14 days: > 2000 mg/kg
[2]; beagle, plasma, dog IV 1 mg/kg
  MRT last: 2.9 ± 0.6 h
  Vd: 115 ± 61.1 L/kg
  clearance: 158 mL/min/kg
  half-life: 486 ± 84 min
[2]; beagle, plasma, dog PO 4 mg/kg
  MRT last: 3.8 ± 0.4 h
  Tmax: 1 h
  half-life: 528 ± 150 min
[2]; beagle, dog IV 1 mg/kg, plasma
  AUC(0-inf): 117 ± 43.6 ng·h/mL
  AUC(0-t): 112 ± 43.4 ng·h/mL
[2]; beagle, dog PO 4 mg/kg, plasma
  AUC(0-inf): 103 ± 13 ng·h/mL
  Cmax: 32.8 ± 9.8 ng/mL
  AUC(0-t): 97.1 ± 14 ng·h/mL
[2]; dog PO 4 mg/kg vs IV 1 mg/kg
  BA: 21.6%
Aβ40 and Aβ42; [3]
  reduction of soluble Aβ40 level vs TG group: 44∼60%
  reduction of soluble Aβ42 level vs vehicle-treated TG mice: 59∼66%
Aβ40 and Aβ42; hippocampus, except the 10 mg/kg/day group
  reduction of soluble Aβ40 level vs TG group: 34∼36%
In vitro
  half-life at 5 µM: 35.2 ± 0.6 min
  remaining at 1 h, 5 µM: 30.9 ± 0.2%
Solubility studies; DMSO/tween-20/saline, read-out: Solubility
  solubility: 583 µg/mL (≈ 1990 µM)
Solubility studies; DW (distilled water), 37 °C
  solubility: 0.000 mg/kg
Solubility studies; SIF, pH 6.8, 37 °C
  solubility: 0.000 mg/kg
Solubility studies; simulated gastric fluid (SGF), SGF, pH 1.2, 37 °C, read-out: Solubility
  solubility: 4 µg/mL (≈ 13.6 µM)
Plasma stability; dog plasma, 0.5 hr
  Parent compound remaining: 100.0%
Plasma stability; dog plasma, 1 hr
  Parent compound remaining: 100.0%
Plasma stability; dog plasma, 2 hr
  Parent compound remaining: 100.0%
Plasma stability; dog plasma, 6 hr
  Parent compound remaining: 100.0%
Plasma stability; human plasma, 0.5 hr
  Parent compound remaining: 100.0%
Plasma stability; human plasma, 1 hr
  Parent compound remaining: 100.0%
Plasma stability; human plasma, 2 hr
  Parent compound remaining: 82.0%
Plasma stability; human plasma, 6 hr
  Parent compound remaining: 100.0%
Plasma stability; mouse plasma, 0.5 hr
  Parent compound remaining: 100.0%
Plasma stability; mouse plasma, 1 hr
  Parent compound remaining: 100.0%
Plasma stability; mouse plasma, 2 hr
  Parent compound remaining: 100.0%
Plasma stability; mouse plasma, 6 hr
  Parent compound remaining: 100.0%
Plasma stability; rat plasma, 0.5 hr
  Parent compound remaining: 86.9%
Plasma stability; rat plasma, 1 hr
  Parent compound remaining: 93.7%
Plasma stability; rat plasma, 2 hr
  Parent compound remaining: 100.0%
Plasma stability; rat plasma, 6 hr
  Parent compound remaining: 100.0%
